Read-outs that look alike come from different tables or passages of the source.
Assays:
Assay in all cases: Test C pre-/postemergence greenhouse test, plant response rating 0-100
Type in all cases: in vivo
[1] = tested on: galium (catchweed bedstraw, Galium aparine); conditions: Galium; for pest or weed control at 125 g/ha: 125 g ai/ha; for pest or weed control at 250 g/ha: 250 g ai/ha; for pest or weed control at 500 g/ha: 500 g ai/ha
Description: (§1) Seeds of plant species selected from blackgrass (Alopecurus myosuroides), Italian ryegrass (Lolium multiflorum), winter wheat (Triticum aestivum), galium (catchweed bedstraw, Galium aparine), corn (Zea mays), large (Lg) crabgrass (Digitaria sanguinalis), giant foxtail (Setaria faberii), johnsongrass (Sorghum halepense), lambsquarters (Chenopodium album), morningglory (Ipomoea coccinea), yellow nutsedge (Cyperus esculentus), pigweed (Amaranthus retroflexus), ragweed (common ragweed, Ambrosia elatior), soybean (Glycine max), barnyardgrass (Echinochloa crus-galli), oilseed rape (Brassica napus), waterhemp (common waterhemp, Amaranthus rudis), and velvetleaf (Abutilon theophrasti) were planted into a blend of loam soil and sand and treated preemergence with test chemicals formulated in a non-phytotoxic solvent mixture which included a surfactant.
(§2) At the same time, plants selected from these crop and weed species and also winter barley (Hordeum vulgare), bermudagrass (Cynodon dactylon), downy bromegrass (Bromus tectorum), canarygrass (Phalaris minor), cocklebur (common cocklebur, Xanthium strumarium), woolly cupgrass (Eriochloa villosa), deadnettle (henbit deadnettle, Lamium amplexicaule), green foxtail (Setaria viridis), goosegrass (Eleusine indica), surinam grass (Brachiaria decumbens), windgrass (Apera spica-venti), chickweed (common chickweed, Stellaria media), kochia (Kochia scoparia), and wild oat (Avena fatua), were planted in pots containing Redi-Earth® planting medium (Scotts Company, 14111 Scottslawn Road, Marysville, Ohio 43041) comprising spaghnum peat moss, vermiculite, wetting agent and starter nutrients and treated with postemergence applications of test chemicals formulated in the same manner. Plants ranged in height from 2 to 18 cm (1- to 4-leaf stage) for postemergence treatments. Treated plants and controls were maintained in a greenhouse for 13 to 15 days, after which time all species were compared to controls and visually evaluated. Plant response ratings, summarized in Table C, are based on a scale of 0 to 100 where 0 is no effect and 100 is complete control. A dash (-) response means no test result.

[2] = tested on: yellow nutsedge (Cyperus esculentus); conditions: Cyperus; for pest or weed control at 62 g/ha: 62 g ai/ha; for pest or weed control at 125 g/ha: 125 g ai/ha; for pest or weed control at 250 g/ha: 250 g ai/ha; for pest or weed control at 500 g/ha: 500 g ai/ha
Description: as §1, §2

[3] = tested on: velvetleaf (Abutilon theophrasti); conditions: Abutilon theophrasti; for pest or weed control at 62 g/ha: 62 g ai/ha; for pest or weed control at 125 g/ha: 125 g ai/ha; for pest or weed control at 250 g/ha: 250 g ai/ha; for pest or weed control at 500 g/ha: 500 g ai/ha
Description: as §1, §2

[4] = tested on: pigweed (Amaranthus retroflexus); conditions: Amaranthus retroflexus; for pest or weed control at 62 g/ha: 62 g ai/ha; for pest or weed control at 250 g/ha: 250 g ai/ha; for pest or weed control at 500 g/ha: 500 g ai/ha
Description: as §1, §2

corn (Zea mays) = conditions: Zea mays, pre-emergence, Preemergence
Description: as §1, §2

[5] = tested on: lambsquarters (Chenopodium album); conditions: Chenopodium album; for pest or weed control at 62 g/ha: 62 g ai/ha; for pest or weed control at 125 g/ha: 125 g ai/ha; for pest or weed control at 250 g/ha: 250 g ai/ha; for pest or weed control at 500 g/ha: 500 g ai/ha
Description: as §1, §2

[6] = tested on: Italian ryegrass (Lolium multiflorum); conditions: Lolium multiflorum; for pest or weed control at 62 g/ha: 62 g ai/ha; for pest or weed control at 125 g/ha: 125 g ai/ha; for pest or weed control at 250 g/ha: 250 g ai/ha; for pest or weed control at 500 g/ha: 500 g ai/ha
Description: as §1, §2

[7] = post-emergence, Postemergence, scale 0 to 100
[8] = post-emergence, Postemergence, read-out: Plant response rating (0 to 100), Nutsedge, Yellow
[9] = pre-emergence, Preemergence, read-out: Plant response rating, Nutsedge, Yellow
[10] = post-emergence, Postemergence, read-out: Plant response rating (0 to 100), Velvetleaf
[11] = pre-emergence, Preemergence, read-out: Plant response rating, Velvetleaf
[12] = post-emergence, Postemergence, read-out: Plant response rating (0 to 100), Lambsquarters
[13] = pre-emergence, Preemergence, read-out: Plant response rating, Lambsquarters
[14] = post-emergence, Postemergence, read-out: Plant response rating (0 to 100), Ryegrass, Italian
[15] = pre-emergence, Preemergence, read-out: Plant response rating, Ryegrass, Italian

Which results are given for C#CCn1cc(C(=O)c2ccccc2)c(-c2cc(Cl)cc(Cl)c2)n1 [Compound 39, [3-(3,5-dichlorophenyl)-1-(2-propyn-1-yl)-1H-pyrazol-4-yl]phenylmethanone]?
pest or weed control at 125 g/ha ([1]; post-emergence, Postemergence, read-out: Plant response rating (0 to 100), Galium): 0%; pest or weed control at 250 g/ha [1, 7]: 0%; pest or weed control at 500 g/ha [1, 7]: 0%; pest or weed control at 62 g/ha ([1]; pre-emergence, Preemergence, 62 g ai/ha, read-out: Plant response rating, Galium): 0%; pest or weed control at 125 g/ha ([1]; pre-emergence, Preemergence, read-out: Plant response rating, Galium): 0%; pest or weed control at 250 g/ha ([1]; pre-emergence, Preemergence): 5%; pest or weed control at 500 g/ha ([1]; pre-emergence, Preemergence): 80%; pest or weed control at 62 g/ha [2, 8]: 0%; pest or weed control at 125 g/ha [2, 8]: 0%; pest or weed control at 250 g/ha [2, 7]: 0%; pest or weed control at 500 g/ha [2, 7]: 5%; pest or weed control at 62 g/ha [2, 9]: 0%; pest or weed control at 125 g/ha [2, 9]: 0%; pest or weed control at 250 g/ha ([2]; pre-emergence, Preemergence): 0%; pest or weed control at 500 g/ha ([2]; pre-emergence, Preemergence): 0%; pest or weed control at 62 g/ha [3, 10]: 75%; pest or weed control at 125 g/ha [3, 10]: 85%; pest or weed control at 250 g/ha [3, 7]: 85%; pest or weed control at 500 g/ha [3, 7]: 98%; pest or weed control at 62 g/ha [3, 11]: 55%; pest or weed control at 125 g/ha [3, 11]: 65%; pest or weed control at 250 g/ha ([3]; pre-emergence, Preemergence): 65%; pest or weed control at 500 g/ha ([3]; pre-emergence, Preemergence): 80%; pest or weed control at 62 g/ha ([4]; post-emergence, Postemergence, read-out: Plant response rating (0 to 100), Pigweed): 90%; pest or weed control at 250 g/ha [4, 7]: 98%; pest or weed control at 500 g/ha [4, 7]: 98%; pest or weed control at 62 g/ha ([4]; pre-emergence, Preemergence, read-out: Plant response rating, Pigweed): 45%; pest or weed control at 125 g/ha ([4]; pre-emergence, Preemergence, 125 g ai/ha, read-out: Plant response rating, Pigweed): 75%; pest or weed control at 250 g/ha ([4]; pre-emergence, Preemergence): 85%; pest or weed control at 500 g/ha ([4]; pre-emergence, Preemergence): 95%; Corn plant response rating (crop injury, 0 = no effect, 100 = complete kill) at 62 g/ha (corn (Zea mays); 62 g ai/ha): 0%; Corn plant response rating (crop injury, 0 = no effect, 100 = complete kill) at 125 g/ha (corn (Zea mays); 125 g ai/ha): 0%; Corn plant response rating (crop injury, 0 = no effect, 100 = complete kill) at 250 g/ha (corn (Zea mays); 250 g ai/ha): 0%; pest or weed control at 62 g/ha [5, 12]: 80%; pest or weed control at 125 g/ha [5, 12]: 80%; pest or weed control at 250 g/ha [5, 7]: 100%; pest or weed control at 500 g/ha [5, 7]: 100%; pest or weed control at 62 g/ha [5, 13]: 30%; pest or weed control at 125 g/ha [5, 13]: 100%; pest or weed control at 250 g/ha ([5]; pre-emergence, Preemergence): 100%; pest or weed control at 500 g/ha ([5]; pre-emergence, Preemergence): 100%; pest or weed control at 62 g/ha [6, 14]: 0%; pest or weed control at 125 g/ha [6, 14]: 0%; pest or weed control at 250 g/ha [6, 7]: 0%; pest or weed control at 500 g/ha [6, 7]: 0%; pest or weed control at 62 g/ha [6, 15]: 0%; pest or weed control at 125 g/ha [6, 15]: 0%; pest or weed control at 250 g/ha ([6]; pre-emergence, Preemergence): 0%; pest or weed control at 500 g/ha ([6]; pre-emergence, Preemergence): 0%
